From patent US20070281992A1, “COMBINATION OF GYRASE B INHIBITORS AND PROTEIN SYNTHESIS INHIBITORS AND USES THEREOF” (priority 2006, published 2007)
Read-outs that look alike come from different tables or passages of the source.

Columns and labels:
Assay type in all cases: cell-based
[1] = system: Methicillin-Susceptible Staphylococcus aureus Isolates; assay: MIC assay (NCCLS broth dilution), MSSA clinical isolates; details: Staphylococcus aureus; for MIC: read-out: Minimal Inhibitory Concentration
Procedure, shortened: (§1)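 NCCLS broth dilution, Mueller Hinton II broth; 11 two-fold serial dilutions per agent. Combos novobiocin:tetracycline or novobiocin:minocycline fixed at 2.5:1. Drugs dissolved in water; vancomycin control.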

[2] = system: Enterococcus faecalis (ATCC 29212); assay: MIC assay, quality control strain E. faecalis ATCC 29212; details: ATCC29212, E. faecalis ATCC 29212, repeat runs 22FEB06-09MAR06, combinations at 2.5:1, read-out: Minimal Inhibitory Concentration, quality control
Procedure, shortened: as §1

[3] = system: Linezolid-Resistant Staphylococcus aureus Isolates; assay: MIC assay (NCCLS broth dilution), LRSA isolates; details: Staphylococcus aureus; for MIC: read-out: Minimal Inhibitory Concentration
Procedure, shortened: as §1

[4] = system: Vancomycin-intermediate Staphylococcus aureus Isolates; assay: MIC assay (NCCLS broth dilution), VISA isolates; details: for MIC: read-out: Minimal Inhibitory Concentration
Procedure, shortened: as §1

[5] = system: Methicillin-Resistant Staphylococcus aureus Isolates; assay: MIC assay (NCCLS broth dilution), MRSA clinical isolates; details: Staphylococcus aureus; for MIC: read-out: Minimal Inhibitory Concentration
Procedure, shortened: as §1

[6] = 52 MSSA isolates, combinations at 2.5:1, given as NB/partner
[7] = 52 MRSA isolates, combinations at 2.5:1, given as NB/partner

CN(C)[C@@H]1C(O)=C(C(N)=O)C(=O)[C@@]2(O)C(O)=C3C(=O)c4c(O)cccc4[C@@](C)(O)[C@H]3C[C@@H]12 [TE, tetracycline]
0.25 µg/mL: MIC ([1]; MSSA isolate 1005, 24FEB06) | MIC ([1]; MSSA isolate 1728, 03MAR06) | MIC ([1]; MSSA isolate 1728, retest 09MAR06) | MIC ([4]; Staphylococcus aureus, VISA isolate 2018, 03MAR06) | MIC50 ([4]; Staphylococcus aureus, 2 VISA isolates, combinations at 2.5:1, given as NB/partner) | MIC ([5]; MRSA isolate 778, 24FEB06) | MIC ([5]; MRSA isolate 1653, 03MAR06) | MIC ([5]; MRSA isolate 1659, 03MAR06)
1 µg/mL: MIC ([1]; MSSA isolate 782, 22FEB06) | MIC ([1]; MSSA isolate 1663, 03MAR06) | MIC ([1]; MSSA isolate 1667, 03MAR06) | MIC ([5]; MRSA isolate 758, 03MAR06) | MIC ([5]; MRSA isolate 760, 03MAR06) | MIC ([5]; MRSA isolate 766, 22FEB06) | MIC ([5]; MRSA isolate 889, 24FEB06) | MIC ([5]; MRSA isolate 1012, 22FEB06) | MIC ([5]; MRSA isolate 1138, 22FEB06)
2 µg/mL: MIC ([4]; Staphylococcus aureus, VISA isolate 2012, 03MAR06)
16 µg/mL: MIC ([1]; MSSA isolate 784, 22FEB06) | MIC [2] | MIC ([5]; MRSA isolate 1004, 24FEB06) | MIC90 [5, 7]
> 16 µg/mL: MIC ([1]; MSSA isolate 999, 22FEB06) | MIC ([3]; LRSA isolate 1725, 24FEB06) | MIC ([5]; MRSA isolate 757, 24FEB06) | MIC ([5]; MRSA isolate 769, 22FEB06) | MIC ([5]; MRSA isolate 1729, 03MAR06) | MIC ([5]; MRSA isolate 2009, 24FEB06) | MIC ([5]; MRSA isolate 2011, 24FEB06)
.25 to 2 µg/mL: MIC Range ([4]; 2 VISA isolates, combinations at 2.5:1, given as NB/partner)
4 µg/mL: MIC ([5]; MRSA isolate 1010, 22FEB06)
0.5 µg/mL: MIC ([1]; MSSA isolate 133, 03MAR06) | MIC ([1]; MSSA isolate 134, 03MAR06) | MIC ([1]; MSSA isolate 135, 03MAR06) | MIC ([1]; MSSA isolate 753, 22FEB06) | MIC ([1]; MSSA isolate 754, 22FEB06) | MIC ([1]; MSSA isolate 754, 24FEB06) | MIC ([1]; MSSA isolate 755, 22FEB06) | MIC ([1]; MSSA isolate 756, 03MAR06) | MIC ([1]; MSSA isolate 779, 22FEB06) | MIC ([1]; MSSA isolate 780, 03MAR06) | MIC ([1]; MSSA isolate 781, 03MAR06) | MIC ([1]; MSSA isolate 783, 22FEB06) | MIC ([1]; MSSA isolate 785, 22FEB06) | MIC ([1]; MSSA isolate 786, 22FEB06) | MIC ([1]; MSSA isolate 787, 22FEB06) | MIC ([1]; MSSA isolate 788, 22FEB06) | MIC ([1]; MSSA isolate 789, 24FEB06) | MIC ([1]; MSSA isolate 790, 24FEB06) | MIC ([1]; MSSA isolate 791, 24FEB06) | MIC ([1]; MSSA isolate 792, 03MAR06) | MIC ([1]; MSSA isolate 793, 24FEB06) | MIC ([1]; MSSA isolate 794, 24FEB06) | MIC ([1]; MSSA isolate 994, 22FEB06) | MIC ([1]; MSSA isolate 995, 03MAR06) | MIC ([1]; MSSA isolate 996, 22FEB06) | MIC ([1]; MSSA isolate 997, 22FEB06) | MIC ([1]; MSSA isolate 998, 03MAR06) | MIC ([1]; MSSA isolate 1000, 24FEB06) | MIC ([1]; MSSA isolate 1001, 24FEB06) | MIC ([1]; MSSA isolate 1002, 24FEB06) | MIC ([1]; MSSA isolate 1003, 03MAR06) | MIC ([1]; MSSA isolate 1006, 24FEB06) | MIC ([1]; MSSA isolate 1007, 24FEB06) | MIC ([1]; MSSA isolate 1008, 24FEB06) | MIC ([1]; MSSA isolate 1009, 24FEB06) | MIC ([1]; MSSA isolate 1131, 24FEB06) | MIC ([1]; MSSA isolate 1132, 03MAR06) | MIC ([1]; MSSA isolate 1133, 24FEB06) | MIC ([1]; MSSA isolate 1134, 24FEB06) | MIC ([1]; MSSA isolate 1654, 03MAR06) | MIC ([1]; MSSA isolate 1656, 03MAR06) | MIC ([1]; MSSA isolate 1662, 03MAR06) | MIC ([1]; MSSA isolate 1666, 03MAR06) | MIC ([1]; MSSA isolate 1668, 03MAR06) | MIC ([1]; MSSA isolate 1671, 03MAR06) | MIC50 [1, 6] | MIC90 [1, 6] | MIC ([3]; LRSA isolate 1651, 24FEB06) | MIC ([3]; LRSA isolate 1652, 24FEB06) | MIC50 ([3]; 3 LRSA isolates, combinations at 2.5:1) | MIC ([5]; MRSA isolate 758, 24FEB06) | MIC ([5]; MRSA isolate 760, 24FEB06) | MIC ([5]; MRSA isolate 763, 22FEB06) | MIC ([5]; MRSA isolate 765, 22FEB06) | MIC ([5]; MRSA isolate 767, 22FEB06) | MIC ([5]; MRSA isolate 768, 22FEB06) | MIC ([5]; MRSA isolate 770, 22FEB06) | MIC ([5]; MRSA isolate 771, 22FEB06) | MIC ([5]; MRSA isolate 772, 22FEB06) | MIC ([5]; MRSA isolate 773, 24FEB06) | MIC ([5]; MRSA isolate 774, 24FEB06) | MIC ([5]; MRSA isolate 775, 24FEB06) | MIC ([5]; MRSA isolate 776, 24FEB06) | MIC ([5]; MRSA isolate 777, 24FEB06) | MIC ([5]; MRSA isolate 886, 24FEB06) | MIC ([5]; MRSA isolate 887, 24FEB06) | MIC ([5]; MRSA isolate 888, 24FEB06) | MIC ([5]; MRSA isolate 1013, 22FEB06) | MIC ([5]; MRSA isolate 1014, 22FEB06) | MIC ([5]; MRSA isolate 1015, 22FEB06) | MIC ([5]; MRSA isolate 1016, 22FEB06) | MIC ([5]; MRSA isolate 1017, 22FEB06) | MIC ([5]; MRSA isolate 1021, 22FEB06) | MIC ([5]; MRSA isolate 1022, 22FEB06) | MIC ([5]; MRSA isolate 1023, 22FEB06) | MIC ([5]; MRSA isolate 1024, 22FEB06) | MIC ([5]; MRSA isolate 1025, 22FEB06) | MIC ([5]; MRSA isolate 1135, 22FEB06) | MIC ([5]; MRSA isolate 1136, 22FEB06) | MIC ([5]; MRSA isolate 1137, 22FEB06) | MIC ([5]; MRSA isolate 1222, 03MAR06) | MIC ([5]; MRSA isolate 1222, 24FEB06) | MIC ([5]; MRSA isolate 1658, 03MAR06) | MIC ([5]; MRSA isolate 1661, 03MAR06) | MIC ([5]; MRSA isolate 1730, 24FEB06) | MIC ([5]; MRSA isolate 2010, 24FEB06) | MIC50 [5, 7]
